Measured values reported in paper PMC12667485, “Molecular Chain Elongation Mechanism for n‐Caproate Biosynthesis by Megasphaera Hexanoica” (Advanced Science, 2025).

Target: T1, MhTHL (Megasphaera hexanoica, UniProt A0A848BQU5, C88S)
T1 construct: gene HF872_02440; tetramerization motif
Assay: X-ray crystal structure, […] Å
Type: binding
Conditions: crystals soaked in 25 mM hexanoyl-CoA for 5 min, pH 7.5; the bound ligand is deacylated CoA; active site

T1 sequence (A0A848BQU5 entry or part of it C88S): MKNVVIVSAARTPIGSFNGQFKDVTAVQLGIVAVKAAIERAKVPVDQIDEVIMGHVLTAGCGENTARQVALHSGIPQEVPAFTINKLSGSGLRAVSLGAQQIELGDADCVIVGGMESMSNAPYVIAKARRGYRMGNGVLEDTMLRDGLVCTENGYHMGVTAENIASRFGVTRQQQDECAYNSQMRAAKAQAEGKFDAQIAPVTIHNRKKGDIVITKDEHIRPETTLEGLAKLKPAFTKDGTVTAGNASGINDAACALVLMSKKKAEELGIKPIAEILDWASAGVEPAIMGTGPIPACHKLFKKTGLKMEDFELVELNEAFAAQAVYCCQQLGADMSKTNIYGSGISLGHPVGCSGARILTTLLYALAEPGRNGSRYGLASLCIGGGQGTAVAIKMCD

In the case of `CC(C)(COP(=O)(O)OP(=O)(O)OC[C@H]1O[C@@H](n2cnc3c(N)ncnc32)[C@H](O)[C@@H]1OP(=O)(O)O)[C@@H](O)C(=O)NCCC(=O)NCCS` [CoA], the “X-ray crystal structure, 1.64 Å” value is reported as “a deacylated CoA molecule was bound to MhTHL in the mF observed‐DF calculated electron density map”.
